Biological target: T1, human recombinant HDAC6 (Homo sapiens, UniProt Q9UBN7)
T1 construct: purchased Calbiochem 382180
T1 sequence (Q9UBN7 1-1215): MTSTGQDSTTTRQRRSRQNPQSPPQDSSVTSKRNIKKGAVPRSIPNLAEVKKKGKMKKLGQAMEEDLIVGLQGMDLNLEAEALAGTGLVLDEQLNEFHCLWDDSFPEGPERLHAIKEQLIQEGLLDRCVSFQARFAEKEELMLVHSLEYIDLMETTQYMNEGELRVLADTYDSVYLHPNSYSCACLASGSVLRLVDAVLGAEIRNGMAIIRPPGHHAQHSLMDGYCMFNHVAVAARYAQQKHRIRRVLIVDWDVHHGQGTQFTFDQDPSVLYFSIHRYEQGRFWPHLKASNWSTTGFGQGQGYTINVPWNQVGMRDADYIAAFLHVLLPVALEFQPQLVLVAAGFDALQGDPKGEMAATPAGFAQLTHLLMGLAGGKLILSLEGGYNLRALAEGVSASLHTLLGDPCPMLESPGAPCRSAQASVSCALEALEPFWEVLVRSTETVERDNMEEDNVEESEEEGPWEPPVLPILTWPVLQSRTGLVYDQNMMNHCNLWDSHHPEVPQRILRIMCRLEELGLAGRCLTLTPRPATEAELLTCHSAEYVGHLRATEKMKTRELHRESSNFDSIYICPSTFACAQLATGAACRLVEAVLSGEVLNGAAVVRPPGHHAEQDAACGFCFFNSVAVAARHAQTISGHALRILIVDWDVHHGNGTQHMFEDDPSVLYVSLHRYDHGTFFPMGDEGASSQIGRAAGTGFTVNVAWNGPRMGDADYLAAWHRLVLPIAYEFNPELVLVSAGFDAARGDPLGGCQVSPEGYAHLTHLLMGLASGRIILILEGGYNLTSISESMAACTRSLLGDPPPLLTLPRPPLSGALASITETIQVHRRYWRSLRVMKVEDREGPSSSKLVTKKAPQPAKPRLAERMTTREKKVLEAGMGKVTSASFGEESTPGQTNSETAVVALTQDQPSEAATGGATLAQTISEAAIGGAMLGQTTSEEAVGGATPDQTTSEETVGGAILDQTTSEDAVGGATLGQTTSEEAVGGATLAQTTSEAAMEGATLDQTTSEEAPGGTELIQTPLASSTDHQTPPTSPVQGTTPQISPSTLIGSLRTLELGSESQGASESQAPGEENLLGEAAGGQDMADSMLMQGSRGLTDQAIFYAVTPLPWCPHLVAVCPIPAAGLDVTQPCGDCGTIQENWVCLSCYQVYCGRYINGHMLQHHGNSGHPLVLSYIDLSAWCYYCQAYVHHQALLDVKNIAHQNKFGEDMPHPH
Test: HDAC6 enzyme activity inhibition assay (HDAC Fluorimetric Drug Discovery Kit)
Assay type: biochemical
Settings: for HDAC6 selectivity (fold): HDAC1 vs HDAC6; for IC50: same protocol as the HDAC1 enzyme activity test
Outline: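 Both isoforms are run by an identical fluorimetric protocol: deacetylation of 10 μM Fluor de Lys-SIRT1 substrate by 0.3 μg recombinant enzyme over 60 min at 30° C, in the presence of 5-fold compound dilutions. Signal is developed for 30 min and read at Ex 360/Em 460 to derive IC50.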

Row | SMILES | HDAC6 selectivity (fold) | IC50 [nM]
1 | CCN1CCN(CCS(=O)(=O)N(Cc2ccc(-c3nnc(C(F)F)o3)cc2)c2ccccc2)CC1 [Compound 11757, N-(4-(5-(difluoromethyl)-1,3,4-oxadiazol-2-yl)benzyl)-2-(4-ethylpiperazin-1-yl)-N-phenylethane-1-sulfonamide] | 1447 | 69.1
2 | COCCN1CCN(CCS(=O)(=O)N(Cc2ccc(-c3nnc(C(F)F)o3)cc2)c2ccccc2)CC1 [Compound 11758, N-(4-(5-(difluoromethyl)-1,3,4-oxadiazol-2-yl)benzyl)-2-(4-(2-methoxyethyl)piperazin-1-yl)-N-phenylethane-1-sulfonamide] | 1039 | 96.2
3 | CC(=O)N1CCCN(CCS(=O)(=O)N(Cc2ccc(-c3nnc(C(F)F)o3)cc2)c2ccccc2)CC1 [Compound 11759, 2-(4-acetyl-1,4-diazepan-1-yl)-N-(4-(5-(difluoromethyl)-1,3,4-oxadiazol-2-yl)benzyl)-N-phenylethane-1-sulfonamide] | 984 | 102
4 | O=S(=O)(CCN1CCCN(Cc2ccccc2)CC1)N(Cc1ccc(-c2nnc(C(F)F)o2)cc1)c1ccccc1 [Compound 11760, 2-(4-benzyl-1,4-diazepan-1-yl)-N-(4-(5-(difluoromethyl)-1,3,4-oxadiazol-2-yl)benzyl)-N-phenylethane-1-sulfonamide] | 508 | 197
5 | O=C(C1CC1)N1CCN(CCS(=O)(=O)N(Cc2ccc(-c3nnc(C(F)F)o3)cc2)c2ccccc2)CC1 [Compound 11761, 2-(4-(cyclopropanecarbonyl)piperazin-1-yl)-N-(4-(5-(difluoromethyl)-1,3,4-oxadiazol-2-yl)benzyl)-N-phenylethane-1-sulfonamide] | 976 | 102
6 | O=S(=O)(CCN1CCC(Cc2ccccc2)CC1)N(Cc1ccc(-c2nnc(C(F)F)o2)cc1)c1ccccc1 [Compound 11762, 2-(4-benzylpiperidin-1-yl)-N-(4-(5-(difluoromethyl)-1,3,4-oxadiazol-2-yl)benzyl)-N-phenylethane-1-sulfonamide] | 100 | 1000
7 | Cc1noc(C2CCN(CCS(=O)(=O)N(Cc3ccc(-c4nnc(C(F)F)o4)cc3)c3ccccc3)CC2)n1 [Compound 11764, N-(4-(5-(difluoromethyl)-1,3,4-oxadiazol-2-yl)benzyl)-2-(4-(3-methyl-1,2,4-oxadiazol-5-yl)piperidin-1-yl)-N-phenylethane-1-sulfonamide] | 731 | 137
8 | CCN(CCS(=O)(=O)N(Cc1ccc(-c2nnc(C(F)F)o2)cc1)c1ccccc1)Cc1ccccc1 [Compound 11765, 2-(benzyl(ethyl)amino)-N-(4-(5-(difluoromethyl)-1,3,4-oxadiazol-2-yl)benzyl)-N-phenylethane-1-sulfonamide] | 526 | 190
9 | O=S(=O)(CCN1CCN(c2ccccc2)CC1)N(Cc1ccc(-c2nnc(C(F)F)o2)cc1)c1ccccc1 [Compound 11766, N-(4-(5-(difluoromethyl)-1,3,4-oxadiazol-2-yl)benzyl)-N-phenyl-2-(4-phenylpiperazin-1-yl)ethane-1-sulfonamide] | 319 | 313
10 | O=S(=O)(CCN1CCN(c2ccccn2)CC1)N(Cc1ccc(-c2nnc(C(F)F)o2)cc1)c1ccccc1 [Compound 11767, N-(4-(5-(difluoromethyl)-1,3,4-oxadiazol-2-yl)benzyl)-N-phenyl-2-(4-(pyridin-2-yl)piperazin-1-yl)ethane-1-sulfonamide] | 844 | 118
11 | O=S(=O)(CCN1CCN(c2ccc(F)cc2)CC1)N(Cc1ccc(-c2nnc(C(F)F)o2)cc1)c1ccccc1 [Compound 11769, N-(4-(5-(difluoromethyl)-1,3,4-oxadiazol-2-yl)benzyl)-2-(4-(4-fluorophenyl)piperazin-1-yl)-N-phenylethane-1-sulfonamide] | 359 | 278
12 | O=S(=O)(CCN1CCN(c2ccc(Cl)c(Cl)c2)CC1)N(Cc1ccc(-c2nnc(C(F)F)o2)cc1)c1ccccc1 [Compound 11770, 2-(4-(3,4-dichlorophenyl)piperazin-1-yl)-N-(4-(5-(difluoromethyl)-1,3,4-oxadiazol-2-yl)benzyl)-N-phenylethane-1-sulfonamide] | 112 | 886
13 | CS(=O)(=O)N(Cc1ccc(-c2nnc(C(F)F)o2)cc1F)c1ccc2ncoc2c1 [Compound 11774, N-(benzo[d]oxazol-6-yl)-N-(4-(5-(difluoromethyl)-1,3,4-oxadiazol-2-yl)-2-fluorobenzyl)methanesulfonamide] | 1503 | 66.5
14 | CS(=O)(=O)N(Cc1ccc(-c2nnc(C(F)F)o2)cc1F)c1ccc2ncsc2c1 [Compound 11775, N-(benzo[d]thiazol-6-yl)-N-(4-(5-(difluoromethyl)-1,3,4-oxadiazol-2-yl)-2-fluorobenzyl)methanesulfonamide] | 2906 | 34.4
15 | CCN1CC(N2CCC(S(=O)(=O)N(Cc3ccc(-c4nnc(C(F)F)o4)cc3)c3cccc(Cl)c3)CC2)C1 [Compound 11777, N-(3-chlorophenyl)-N-(4-(5-(difluoromethyl)-1,3,4-oxadiazol-2-yl)benzyl)-1-(1-ethylazetidin-3-yl)piperidine-4-sulfonamide] | 3472 | 28.8

Other lines, results leading:

Row | HDAC6 selectivity (fold) | IC50 [nM] | SMILES
16 | 264 | 378 | O=S(=O)(CCN1Cc2ccccc2C1)N(Cc1ccc(-c2nnc(C(F)F)o2)cc1)c1ccccc1 [Compound 11756, N-(4-(5-(difluoromethyl)-1,3,4-oxadiazol-2-yl)benzyl)-2-(isoindolin-2-yl)-N-phenylethane-1-sulfonamide]
17 | 948 | 105 | O=S(=O)(CCN1CCC(N2CCOCC2)CC1)N(Cc1ccc(-c2nnc(C(F)F)o2)cc1)c1ccccc1 [Compound 11763, N-(4-(5-(difluoromethyl)-1,3,4-oxadiazol-2-yl)benzyl)-2-(4-morpholinopiperidin-1-yl)-N-phenylethane-1-sulfonamide]
18 | 2610 | 38.3 | O=S(=O)(CCN1CCN(c2ccncc2)CC1)N(Cc1ccc(-c2nnc(C(F)F)o2)cc1)c1ccccc1 [Compound 11768, N-(4-(5-(difluoromethyl)-1,3,4-oxadiazol-2-yl)benzyl)-N-phenyl-2-(4-(pyridin-4-yl)piperazin-1-yl)ethane-1-sulfonamide]
19 | 311 | 321 | O=S(=O)(CCN1CCN(CCc2ccccc2)CC1)N(Cc1ccc(-c2nnc(C(F)F)o2)cc1)c1ccccc1 [Compound 11771, N-(4-(5-(difluoromethyl)-1,3,4-oxadiazol-2-yl)benzyl)-2-(4-phenethylpiperazin-1-yl)-N-phenylethane-1-sulfonamide]
20 | 2057 | 48.6 | O=S(=O)(CCN1CCN(CCc2ccncc2)CC1)N(Cc1ccc(-c2nnc(C(F)F)o2)cc1)c1ccccc1 [Compound 11772, N-(4-(5-(difluoromethyl)-1,3,4-oxadiazol-2-yl)benzyl)-N-phenyl-2-(4-(2-(pyridin-4-yl)ethyl)piperazin-1-yl)ethane-1-sulfonamide]
21 | 370 | 270 | O=S(=O)(CCN1CCN(C/C=C/c2ccccc2)CC1)N(Cc1ccc(-c2nnc(C(F)F)o2)cc1)c1ccccc1 [Compound 11773, 2-(4-cinnamylpiperazin-1-yl)-N-(4-(5-(difluoromethyl)-1,3,4-oxadiazol-2-yl)benzyl)-N-phenylethane-1-sulfonamide]
22 | 113 | 882 | CS(=O)(=O)N(Cc1ccc(-c2nnc(C(F)F)o2)cc1F)c1nncs1 [Compound 11776, N-(4-(5-(difluoromethyl)-1,3,4-oxadiazol-2-yl)-2-fluorobenzyl)-N-(1,3,4-thiadiazol-2-yl)methanesulfonamide]
